Tested on: severe traumatic brain injury (sTBI)
Test: sTBI in rats, brain gene expression arrays and pathway analysis (Example 9)
Assay type: in vivo, Male Wistar rats
Design: key to z score, canonical pathway Dendritic Cell Maturation / z score, canonical pathway Adrenomedullin Signaling pathway / z score, canonical pathway Endothelin-1 Signaling / effect on canonical pathway Adrenomedullin Signaling pathway / effect on canonical pathway Endothelin-1 Signaling / effect on canonical pathway Dendritic Cell Maturation / Ingenuity canonical pathway Adrenomedullin signaling pathway, z score / Ingenuity canonical pathway FLT3 Signaling in Hematopoietic Progenitor Cells, z score / Ingenuity canonical pathway Opioid Signaling Pathway, z score / Ingenuity canonical pathway VDR/RXR Activation, z score / Ingenuity canonical pathway Neuropathic Pain Signaling In Dorsal Horn Neurons, z score / Ingenuity canonical pathway STAT3 Pathway, z score / Ingenuity canonical pathway IL-1 Signaling, z score / Ingenuity canonical pathway IL-6 Signaling, z score / Ingenuity canonical pathway NF-κB Signaling, z score / Ingenuity canonical pathway Role of NFAT in Cardiac Hypertrophy, z score / Ingenuity canonical pathway PPARα/RXRα Activation, z score: *: ambiguous effect
Procedure: The experimental protocol used in this study was approved by the Ethical Committee of the Catholic University of Rome, according to international standards and guidelines for animal care. Male Wistar rats of 300-350 g body weight were fed with standard laboratory diet and water ad libitum in a controlled environment. As the anesthetic mixture, the animals received 35 mg/kg b.w. ketamine and 0.25 mg/kg body weight midazolam by i.p. injection. Severe traumatic brain injury (sTBI) was induced by dropping a 450 g weight from 2 m height on to the rat head that had been protected by a metal disk previously fixed on the skull, according to the “weight drop” impact acceleration model (Marmarou et al., A new model of diffuse brain injury in rats. Part I: Pathophysiology and biomechanics. J Neurosurg. 1994; 80: 291-300). […] At the end of each period of treatment, rats were anesthetized again and then immediately sacrificed.
LMW-DS (Tikomed AB) was provided at a stock concentration of 20 mg/ml and was kept in a temperature-monitored refrigerator at 4° C. LMW-DS aliquots were diluted to the appropriate dosing concentration in sterile saline prior to delivery of a single subcutaneous injection.
Three doses of LMW-DS were administered subcutaneously 30 minutes post-TBI. The animals were sacrificed at 2 days post-TBI. The animals were divided into the following subgroups:
Three doses of LMW-DS were administered subcutaneously 30 minutes post-TBI. The animals were sacrificed at 7 days post-TBI. The animals were divided into the following subgroups:
An in vivo craniectomy was performed on all animals during anesthesia. After carefully removing the rat's skull, the brain was exposed and removed with a surgical spatula and quickly dropped in RNALater and preserved at 4° C. for further processing.
RNA extraction and array processing was carried out by SourceBioscience. The arrays used were the Agilent Rat expression arrays.
Statistical analysis was carried out using the Metaboanalyst software package. Gene expression changes of 10% with a p<0.05 were regarded as significant.
Pathway analysis of the differentially regulated genes was carried out using the Ingenuity pathway analysis package. The analysis was performed with special reference to pathways and molecular processes and diseases associated with neurodegenerative disease, including dementia, Alzheimer's disease, ALS, TBI and stroke, and with scarring and fibrosis, including glaucoma and normal pressure hydrocephalus (NPH) after subarachnoid haemorrhage.

[1] = 3 repeated doses of 15 mg/kg, 7 days
[2] = 2 days after TBI, TBI + 1 mg/kg LMW-DS
[3] = 2 days after TBI, TBI + 1 mg/kg LMW-DS, relative to control

Substance: low molecular weight dextran sulfate [LMW-DS]
- genes with altered TBI-specific expression (1 mg/kg s.c. 30 min after injury, 2 days): 372 genes
- genes with altered TBI-specific expression (1 mg/kg s.c. 30 min after injury, 7 days): 3602 genes
- TBI-deregulated genes remaining deregulated relative to healthy controls (of 221) (1 mg/kg, 2 days): 22 genes
- TBI-deregulated genes remaining deregulated, percent (1 mg/kg, 2 days): 10%
- genes differing from healthy controls (1 mg/kg, 2 days): 209 genes
- TBI-deregulated genes remaining deregulated relative to healthy controls (of 2741) (1 mg/kg, 7 days): 124 genes
- TBI-deregulated genes remaining deregulated, percent (1 mg/kg, 7 days): 4.5%
- genes differing from healthy controls (1 mg/kg, 7 days): 282 genes
- genes with altered TBI-specific expression (5 mg/kg s.c. 30 min after TBI, 2 days): 702 genes
- genes with altered TBI-specific expression (5 mg/kg s.c. 30 min after TBI, 7 days): 3852 genes
- TBI-deregulated genes remaining deregulated relative to healthy controls (of 221) (5 mg/kg, 2 days): 51 genes
- TBI-deregulated genes remaining deregulated, percent (5 mg/kg, 2 days): 23%
- genes differing from healthy controls (5 mg/kg, 2 days): 258 genes
- TBI-deregulated genes remaining deregulated relative to healthy controls (of 2741) (5 mg/kg, 7 days): 169 genes
- TBI-deregulated genes remaining deregulated, percent (5 mg/kg, 7 days): 6.1%
- genes differing from healthy controls (5 mg/kg, 7 days): 398 genes
- genes with altered TBI-specific expression (15 mg/kg s.c. 30 min after TBI, 2 days): 247 genes
- genes with altered TBI-specific expression (15 mg/kg s.c. 30 min after TBI, 7 days): 3901 genes
- TBI-deregulated genes remaining deregulated relative to healthy controls (of 221) (15 mg/kg, 2 days): 19 genes
- TBI-deregulated genes remaining deregulated, percent (15 mg/kg, 2 days): 8.5%
- genes differing from healthy controls (15 mg/kg, 2 days): 47 genes
- TBI-deregulated genes remaining deregulated relative to healthy controls (of 2741) (15 mg/kg, 7 days): 85 genes
- TBI-deregulated genes remaining deregulated, percent (15 mg/kg, 7 days): 3.1%
- genes differing from healthy controls (15 mg/kg, 7 days): 158 genes
- TBI-deregulated genes remaining deregulated relative to healthy controls (of 2741) [1]: 116 genes
- TBI-deregulated genes remaining deregulated, percent [1]: 4.25%
- genes differing from healthy controls [1]: 234 genes
- effect on canonical pathway Adrenomedullin Signaling pathway [2]: *
- effect on canonical pathway Dendritic Cell Maturation [2]: *
- effect on canonical pathway Endothelin-1 Signaling [2]: *
- effect on canonical pathway IL-1 Signaling [2]: Inhibited
- effect on canonical pathway Osteoarthritis Pathway [2]: Inhibited
- effect on canonical pathway Role of NFAT in Regulation of the Immune Response [2]: Activated
- z score, Abdominal cancer [2]: −1.538
- z score, Abdominal carcinoma [2]: −1.715
- z score, Abdominal neoplasm [2]: −0.154
- z score, Activation of blood cells [2]: 0.086
- z score, Activation of cells [2]: 0.836
- z score, Activation of leukocytes [2]: 0.086
- z score, Activation of lymphocytes [2]: −1.158
- z score, Adhesion of tumor cell lines [2]: 2.074
- z score, Apoptosis [2]: −0.337
- z score, Apoptosis of muscle cells [2]: 0.041
- z score, Behavior [2]: 1.334
- z score, Binding of tumor cell lines [2]: 2.397
- z score, Carcinoma [2]: −0.127
- z score, Cell death [2]: −0.793
- z score, Cell death of blood cells [2]: 1.082
- z score, Cell death of immune cells [2]: 1.001
- z score, Cell movement [2]: 1.948
- z score, Cell movement of muscle cells [2]: −0.26
- z score, Cell movement of vascular smooth muscle cells [2]: −0.588
- z score, Cell proliferation of T lymphocytes [2]: −1.097
- z score, Cellular homeostasis [2]: 0.19
- z score, Concentration of prostaglandin [2]: −0.911
- z score, Development of connective tissue cells [2]: −0.332
- z score, Differentiation of bone cells [2]: −0.341
- z score, Differentiation of connective tissue cells [2]: 0.73
- z score, Differentiation of hematopoietic progenitor cells [2]: 0.487
- z score, Differentiation of osteoclasts [2]: −0.223
- z score, Digestive organ tumor [2]: −0.604
- z score, Experimentally-induced arthritis [2]: −0.816
- z score, Extracranial solid tumor [2]: 0.056
- z score, Genital tumor [2]: 0.13
- z score, Incidence of tumor [2]: −1.131
- z score, Inflammation of absolute anatomical region [2]: −1.359
- z score, Inflammation of body cavity [2]: −1.757
- z score, Inflammation of joint [2]: −0.053
- z score, Inflammation of organ [2]: −1.295
- z score, Inflammatory response [2]: 1.159
- z score, Interaction of mononuclear leukocytes [2]: 1.626
- z score, Leukocyte migration [2]: 1.296
- z score, Leukopoiesis [2]: 1.185
- z score, Locomotion [2]: −0.039
- z score, Lymphopoiesis [2]: 0.583
- z score, Malignant solid tumor [2]: −0.562
- z score, Migration of cells [2]: 2.093
- z score, Necrosis [2]: −0.361
- z score, Non-hematologic malignant neoplasm [2]: −0.243
- z score, Pelvic tumor [2]: −0.651
- z score, Proliferation of blood cells [2]: −1.083
- z score, Proliferation of lymphatic system cells [2]: −1.112
- z score, Proliferation of lymphocytes [2]: −0.852
- z score, Quantity of blood cells [2]: −1.479
- z score, Quantity of bone [2]: −1.985
- z score, Quantity of cells [2]: −0.765
- z score, Quantity of connective tissue cells [2]: 0.637
- z score, Quantity of leukocytes [2]: −1.163
- z score, Quantity of lymphatic system cells [2]: −0.701
- z score, Quantity of phagocytes [2]: −2.061
- z score, Rheumatic Disease [2]: −0.053
- z score, Size of body [2]: −4.771
- z score, Solid tumor [2]: −0.186
- z score, Survival of organism [2]: −0.095
- z score, Synthesis of hormone [2]: 0.977
- z score, Thrombus [2]: 1
- z score, Transcription of RNA [2]: −2.488
- z score, Transport of molecule [2]: 2.421
- z score, canonical pathway Adrenomedullin Signaling pathway [3]: *
- z score, canonical pathway Dendritic Cell Maturation [3]: *
- z score, canonical pathway Endothelin-1 Signaling [3]: *
- z score, canonical pathway IL-1 Signaling [3]: −1
- z score, canonical pathway Osteoarthritis Pathway [3]: −1.342
- z score, canonical pathway Role of NFAT in Regulation of the Immune Response [3]: 0.378

Reference: patent publication US11534457B2, “Use of dextran sulfate” (priority 2017, dated 2022)
